Ten compounds from patent publication US8343959B2, “N-phenyl-(piperazinyl or homopiperazinyl)-benzenesulfonamide or benzenesulfonyl-phenyl-(piperazine or homopiperazine) compounds suitable for treating disorders that respond to modulation of the serotonin 5-HT6 receptor” (Abbott GmbH & Co. KG, priority 2009, dated 2013) can be followed below.

Where a name gives a salt, the structure may show the parent alone. A value given as a limit tells only on which side of the number the result lay.

T1 sequence (P50406 whole entry): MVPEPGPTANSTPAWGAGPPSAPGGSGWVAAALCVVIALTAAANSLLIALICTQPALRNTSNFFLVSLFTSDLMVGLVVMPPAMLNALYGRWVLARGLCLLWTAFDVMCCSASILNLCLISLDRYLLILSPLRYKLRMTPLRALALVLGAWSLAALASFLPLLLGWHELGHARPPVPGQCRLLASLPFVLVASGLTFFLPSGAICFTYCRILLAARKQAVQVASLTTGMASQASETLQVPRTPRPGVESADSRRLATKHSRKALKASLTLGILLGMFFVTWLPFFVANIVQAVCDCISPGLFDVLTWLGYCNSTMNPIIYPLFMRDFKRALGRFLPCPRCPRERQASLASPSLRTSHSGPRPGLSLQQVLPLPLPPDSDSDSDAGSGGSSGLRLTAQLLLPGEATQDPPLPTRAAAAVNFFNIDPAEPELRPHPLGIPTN

The assay has as its target T1, h-5-HT6 receptor (Homo sapiens, UniProt P50406).
T1 construct: expressed in transfected cells
In words: 5-HT6 receptor binding assay (displacement of [3H]-LSD). To be noted: membranes of HEK293 cells expressing h-5-HT6 receptor, 1 nM [3H]-LSD; read-out: Ki (5HT6). A general note: Displacement assays read how much labelled ligand stays bound in the presence of the test substance.
With `COc1cc(NS(=O)(=O)c2ccc(OC)c(N3CCNCC3)c2)ccc1OC(F)F` [Example 93, N-(4-Difluoromethoxy-3-methoxy-phenyl)-4-methoxy-3-piperazin-1-yl-benzenesulfonamide hydrochloride], the inhibition constant (Ki) was below 10 nM.
Turning to `Cc1ccc(S(=O)(=O)Nc2cccc(OC(F)F)c2)cc1N1CCN(C)CC1` [Example 94, N-(3-Difluoromethoxy-phenyl)-4-methyl-3-(4-methyl-piperazin-1-yl)-benzenesulfonamide hydrochloride], the inhibition constant Ki is below 10 nM.
On to `COc1ccc(S(=O)(=O)Nc2ccc(OC(F)F)cc2)cc1N1CCN(C)CC1` [Example 95, N-(4-Difluoromethoxy-phenyl)-4-methoxy-3-(4-methyl-piperazin-1-yl)-benzenesulfonamide hydrochloride], for which the inhibition constant Ki was below 10 nM.
Under `Cc1ccc(S(=O)(=O)Nc2cccc(OC(F)F)c2)cc1N1CCCNCC1` [Example 96, 3-[1,4]Diazepan-1-yl-N-(3-difluoromethoxy-phenyl)-4-methyl-benzenesulfonamide hydrochloride] stands below 50 nM; under `Cc1ccc(S(=O)(=O)Nc2ccccc2OC(F)F)cc1N1CCCNCC1` [Example 97, 3-[1,4]Diazepan-1-yl-N-(2-difluoromethoxy-phenyl)-4-methyl-benzenesulfonamide hydrochloride], below 10 nM; under `Cc1ccc(NS(=O)(=O)c2ccc(C)c(N3CCCNCC3)c2)cc1OC(F)F` [Example 98, 3-[1,4]Diazepan-1-yl-N-(3-difluoromethoxy-4-methyl-phenyl)-4-methyl-benzenesulfonamide hydrochloride], below 50 nM.
Turning to `Cc1ccc(NS(=O)(=O)c2ccc(C)c(N3CCCN(C)CC3)c2)cc1OC(F)F` [Example 99, N-(3-Difluoromethoxy-4-methyl-phenyl)-4-methyl-3-(4-methyl-[1,4]diazepan-1-yl)-benzenesulfonamide hydrochloride], the Ki is below 500 nM.
Take `Cc1ccc(S(=O)(=O)Nc2ccccc2OC(F)F)cc1N1CCCN(C)CC1` [Example 100, N-(2-Difluoromethoxy-phenyl)-4-methyl-3-(4-methyl-[1,4]diazepan-1-yl)-benzenesulfonamide hydrochloride]: the inhibition constant Ki is below 10 nM.
With `Cc1ccc(S(=O)(=O)Nc2cccc(OC(F)F)c2)cc1N1CCCN(C)CC1` [Example 101, N-(3-Difluoromethoxy-phenyl)-4-methyl-3-(4-methyl-[1,4]diazepan-1-yl)-benzenesulfonamide hydrochloride] the figure was below 10 nM; with `CCOc1ccc(S(=O)(=O)Nc2ccc(C)cc2OC(F)F)cc1N1CCNCC1` [Example 106, N-(2-Difluoromethoxy-4-methylphenyl)-4-ethoxy-3-piperazin-1-yl benzenesulfonamide], below 10 nM.

Usually Ki stands for a measure of affinity in units of concentration, obtained from inhibition or displacement.
